Source: ChEMBL document CHEMBL1124186, “Synthesis and evaluation of tylosin-related macrolides modified at the aldehyde function: a new series of orally effective antibiotics” (1988)
Values after ≈ are worked out from the molar mass of the structure shown.

Tests used:
Fusobacterium = test: In vitro antimicrobial activity against anaerobic bacteria fusobacterium symbiosum 1470; assay type: functional
Chlamydia trachomatis = test: In vitro antimicrobial activity against chlamydia trachomatis.; assay type: functional
Collinsella aerofaciens = test: In vitro antimicrobial activity against anaerobic bacteria eubacterium aerofaciens 1235; assay type: functional
Streptococcus [1] = test: In vitro antimicrobial activity against aerobic bacteria Streptococcus C 24; assay type: functional
Clostridium perfringens = test: In vitro antimicrobial activity against anaerobic bacteria clostridium perfringens 81,; assay type: functional
[2] = test system: Staphylococcus epidermidis; test: In vitro antimicrobial activity against Staphylococcus epidermidis EPI1; assay type: functional
Haemophilus influenzae [3] = test: In vitro antimicrobial activity against aerobic bacteria Haemophilus influenzae 465; assay type: functional
[4] = test system: Staphylococcus epidermidis; test: In vitro antimicrobial activity against aerobic bacteria Streptococcus epi 222; assay type: functional
Streptococcus pneumoniae [5] = test: In vitro antimicrobial activity against aerobic bacteria Streptococcus pneumoniae B1-438; assay type: functional, streptococcus pneum
Bacteroides fragilis [6] = test: In vitro antimicrobial activity against anaerobic bacteria bacteroides fragilis 111; assay type: functional
Staphylococcus aureus [7] = test: In vitro antimicrobial activity against aerobic bacteria Staphylococcus aureus V41; assay type: functional
Streptococcus sanguinis = test: In vitro antimicrobial activity against aerobic bacteria Streptococcus sanguis MX132; assay type: functional
[8] = test system: Peptostreptococcus anaerobius; test: In vitro antimicrobial activity against anaerobic bacteria eubacterium peptostreptococcus anaerobius 1428,; assay type: functional
Eikenella corrodens = test: In vitro antimicrobial activity against anaerobic bacteria bacteroides corrodens 1874; assay type: functional
Staphylococcus aureus [9] = test: In vitro antimicrobial activity against aerobic bacteria Staphylococcus aureus V135; assay type: functional
Staphylococcus aureus [10] = test: In vitro antimicrobial activity against aerobic bacteria Staphylococcus aureus V140,; assay type: functional
Streptococcus [11] = test: In vitro antimicrobial activity against aerobic bacteria Streptococcus B 5; assay type: functional
[12] = In vitro antimicrobial activity against anaerobic bacteria peptostreptococcus intermedius 1264; assay type: functional
Anaerococcus prevotii = test: In vitro antimicrobial activity against anaerobic bacteria peptococcus prevoti 1281; assay type: functional
[13] = test system: Prevotella melaninogenica; test: In vitro antimicrobial activity against anaerobic bacteria bacteroides melaninogenicus 1856,; assay type: functional
Streptococcus pyogenes [14] = test: In vivo effective dose against Streptococcus pyogenes C203 when administered orally; assay type: functional; details: po
Enterococcus faecium = test: In vitro antimicrobial activity against Streptococcus faecium X66; assay type: functional, streptococcus fae-cium
[15] = test system: Peptoniphilus asaccharolyticus; test: In vitro antimicrobial activity against anaerobic bacteria peptococcus asaccharolyticus 1302; assay type: functional
Streptococcus pyogenes [16] = test: Antimicrobial activity against Streptococcus pyogenes C203; assay type: functional
Staphylococcus aureus [17] = test: In vitro antimicrobial activity against aerobic bacteria Staphylococcus aureus 513E; assay type: functional
[18] = test system: Haemophilus parainfluenzae; test: In vitro antimicrobial activity against aerobic bacteria Haemophilus parainfluenzae 9796; assay type: functional
Cutibacterium acnes = test: In vitro antimicrobial activity against anaerobic bacteria propionibacterium acnes 79; assay type: functional
Bacteroides fragilis [19] = test: In vitro antimicrobial activity against anaerobic bacteria bacteroides fragilis 1936B,; assay type: functional
Streptococcus pneumoniae [20] = test: In vitro antimicrobial activity against Streptococcus pneumoniae; assay type: functional
Phocaeicola vulgatus = test: In vitro antimicrobial activity against anaerobic bacteria bacteroides vulgatus 1211; assay type: functional
[21] = test system: Prevotella melaninogenica; test: In vitro antimicrobial activity against anaerobic bacteria bacteroides melaninogenicus 2736; assay type: functional
[22] = test system: Bacteroides thetaiotaomicron; test: In vitro antimicrobial activity against anaerobic bacteria bacteroides thetaiotaomicron 1438; assay type: functional
Clostridium septicum = test: In vitro antimicrobial activity against anaerobic bacteria clostridium septicum 1128; assay type: functional
Bacteroides fragilis [23] = test: In vitro antimicrobial activity against anaerobic bacteria bacteroides fragilis 1877; assay type: functional
Haemophilus influenzae [24] = test: In vitro antimicrobial activity against aerobic bacteria Haemophilus influenzae 76; assay type: functional
Streptococcus [25] = test: In vitro antimicrobial activity against aerobic bacteria Streptococcus D 8043; assay type: functional
[26] = test system: Fusobacterium necrophorum; test: In vitro antimicrobial activity against anaerobic bacteria usobacterium necrophorum 6054A; assay type: functional
Staphylococcus aureus [27] = test: In vitro antimicrobial activity against aerobic bacteria Staphylococcus aureus X400; assay type: functional
Staphylococcus aureus [28] = test: In vitro antimicrobial activity against Staphylococcus aureus X1; assay type: functional
Streptococcus [29] = test: In vitro antimicrobial activity against aerobic bacteria Streptococcus G Kruder; assay type: functional; details: Streptococcus; read-out: MIC
Haemophilus influenzae [30] = test: In vitro antimicrobial activity against Haemophilus influenzae.; assay type: functional
Streptococcus pyogenes [31] = test: In vitro antimicrobial activity against Streptococcus pyogenes C203; assay type: functional
Streptococcus [32] = test: In vitro antimicrobial activity against aerobic bacteria Streptococcus D 2041; assay type: functional
Streptococcus pyogenes [33] = test: In vivo effective dose against Streptococcus pyogenes C203 when administered sc; assay type: functional
Streptococcus [34] = test: In vitro antimicrobial activity against aerobic bacteria Streptococcus D 9960; assay type: functional
Haemophilus influenzae [35] = test: In vitro antimicrobial activity against aerobic bacteria Haemophilus influenzae MX366,; assay type: functional
Streptococcus viridans = test: In vitro antimicrobial activity against aerobic bacteria Streptococcus viridans 9943; assay type: functional
Streptococcus [36] = test: In vitro antimicrobial activity against aerobic bacteria Streptococcus B 8; assay type: functional
Clostridioides difficile = test: In vitro antimicrobial activity against anaerobic bacteria Clostridium difficile 2994; assay type: functional
[37] = test system: Staphylococcus epidermidis; test: In vitro antimicrobial activity against aerobic bacteria Streptococcus epi 270; assay type: functional

## CC[C@H]1OC(=O)C[C@@H](O)[C@H](C)[C@@H](O[C@@H]2O[C@H](C)[C@@H](O[C@H]3C[C@@](C)(O)[C@@H](O)[C@H](C)O3)[C@H](N(C)C)[C@H]2O)[C@@H](CC=O)C[C@@H](C)C(=O)/C=C/C(C)=C/[C@@H]1CO
Fusobacterium
  MIC: 0.5 mg/L (≈ 0.674 µM)
Chlamydia trachomatis
  MIC: 1 mg/L (≈ 1.35 µM)
Collinsella aerofaciens
  MIC: 0.12 mg/L (≈ 0.162 µM)
Streptococcus [1]
  MIC: 0.25 mg/L (≈ 0.337 µM)
Clostridium perfringens
  MIC: 0.5 mg/L (≈ 0.674 µM)
[2]
  MIC: 1 mg/L (≈ 1.35 µM)
Haemophilus influenzae [3]
  MIC: 8 mg/L (≈ 10.8 µM)
[4]
  MIC: 0.25 mg/L (≈ 0.337 µM)
Streptococcus pneumoniae [5]
  MIC: 128 mg/L (≈ 173 µM)
Bacteroides fragilis [6]
  MIC: 2 mg/L (≈ 2.7 µM)
Staphylococcus aureus [7]
  MIC: 1 mg/L (≈ 1.35 µM)
Streptococcus sanguinis
  MIC: 0.25 mg/L (≈ 0.337 µM)
[8]
  MIC: 4 mg/L (≈ 5.39 µM)
Eikenella corrodens
  MIC: 2 mg/L (≈ 2.7 µM)
Staphylococcus aureus [9]
  MIC: 2 mg/L (≈ 2.7 µM)
Staphylococcus aureus [10]
  MIC: 2 mg/L (≈ 2.7 µM)
Streptococcus [11]
  MIC: 0.5 mg/L (≈ 0.674 µM)
[12]
  MIC: 0.25 mg/L (≈ 0.337 µM)
Anaerococcus prevotii
  MIC: 8 mg/L (≈ 10.8 µM)
[13]
  MIC: 0.5 mg/L (≈ 0.674 µM)
Streptococcus pyogenes [14]
  ED50: 82 mg/kg
Enterococcus faecium
  MIC: 1 mg/L (≈ 1.35 µM)
[15]
  MIC: < 0.03 mg/L
Streptococcus pyogenes [16]
  MIC: 0.25 mg/L (≈ 0.337 µM)
Staphylococcus aureus [17]
  MIC: 1 mg/L (≈ 1.35 µM)
[18]
  MIC: 8 mg/L (≈ 10.8 µM)
Cutibacterium acnes
  MIC: 0.25 mg/L (≈ 0.337 µM)
Bacteroides fragilis [19]
  MIC: 2 mg/L (≈ 2.7 µM)
Streptococcus pneumoniae [20]
  MIC: 0.5 mg/L (≈ 0.674 µM)
Phocaeicola vulgatus
  MIC: 2 mg/L (≈ 2.7 µM)
[21]
  MIC: 2 mg/L (≈ 2.7 µM)
[22]
  MIC: 2 mg/L (≈ 2.7 µM)
Clostridium septicum
  MIC: 0.5 mg/L (≈ 0.674 µM)
Bacteroides fragilis [23]
  MIC: 4 mg/L (≈ 5.39 µM)
Haemophilus influenzae [24]
  MIC: 4 mg/L (≈ 5.39 µM)
Streptococcus [25]
  MIC: 0.5 mg/L (≈ 0.674 µM)
[26]
  MIC: 0.12 mg/L (≈ 0.162 µM)
Staphylococcus aureus [27]
  MIC: 2 mg/L (≈ 2.7 µM)
Staphylococcus aureus [28]
  MIC: 1 mg/L (≈ 1.35 µM)
Streptococcus [29]
  MIC: 0.25 mg/L (≈ 0.337 µM)
Haemophilus influenzae [30]
  MIC: 4 mg/L (≈ 5.39 µM)
Streptococcus pyogenes [31]
  MIC: 0.25 mg/L (≈ 0.337 µM)
Streptococcus [32]
  MIC: 0.5 mg/L (≈ 0.674 µM)
Streptococcus pyogenes [33]
  ED50: 1.9 mg/kg
Streptococcus [34]
  MIC: 1 mg/L (≈ 1.35 µM)
Haemophilus influenzae [35]
  MIC: 2 mg/L (≈ 2.7 µM)
Streptococcus viridans
  MIC: > 128 mg/L
Streptococcus [36]
  MIC: 0.25 mg/L (≈ 0.337 µM)
Clostridioides difficile
  MIC: 1 mg/L (≈ 1.35 µM)
[37]
  MIC: > 128 mg/L
